These results are taken from EPA's ToxValDB 9.5 (doi:10.2903/j.efsa.2015.4308).

For orientation: NOAEL means the highest tested level that showed no adverse finding.

The subject of one data set is Canidae. Particulars: chronic; duration: 1 years; oral; F; Dog Other; body weight.
The next data set deals with Hypoaspis aculeifer. Conditions: chronic/long-term.
A further data set concerns Daphnia magna. Conditions: chronic/long-term; duration: 21 days; reproduction.
Another data set has as its system Folsomia candida. Particulars: chronic/long-term.
In another data set the test system is Bibionidae. Particulars: chronic/long-term.
For the next data set, the system named is Oncorhynchus mykiss. Particulars: acute; duration: 96 hours; mortality.
The test system of a further data set is Oryctolagus sp. Particulars: reproduction developmental; body weight.
The next data set concerns Pimephales promelas. Particulars: chronic/long-term; duration: 34 days; growth.
The test system of the next data set is Aphidius rhopalosiphi. Nature of the data set: LR50; higher = less toxic. Particulars: not reported; mortality.
In a further data set the test system is Typhlodromus pyri. The data set is described as follows: LR50; higher = less toxic. Particulars: not reported; mortality.

For `[Br-].[Br-].c1cc[n+]2c(c1)-c1cccc[n+]1CC2` [Diquat dibromide], the NOAEL with Canidae worked out at 0.5 mg/kg-day; in the data set with Rattus norvegicus (chronic, duration: 2 years, ophthalmoscopic examination) it was 0.2 mg/kg-day; with Rattus norvegicus (reproduction developmental) it was 0.2 mg/kg-day; with Oryctolagus sp., 1 mg/kg-day; in the data set on Anas platyrhynchos (reproductive) it was 0.5 mg/kg-day. For the same compound, the NOEC turned out to be 50 mg/kg with Hypoaspis aculeifer; 125 µg/L in the data set with Daphnia magna; 9.38 mg/kg with Folsomia candida; 100 mg/kg with Bibionidae (duration: 20 days); 1270 µg/L with Bibionidae (duration: 28 days); 37 mg/kg in the data set with Tagia sp. (chronic/long-term, duration: 8 weeks). The compound further returned an NOEC with Pimephales promelas of 120 µg/L. Moreover, the LC50 came out at 94.3 mg/kg in the data set with Tagia sp. (acute, duration: 14 days, mortality) and 6.1 µg/mL with Oncorhynchus mykiss. Further, the LD50 amounted to 214 mg/kg-day in the data set on Rattus norvegicus (acute, M, mortality) and 71 mg/kg-day in the data set with Anas platyrhynchos (acute, oral, unspecified, mortality). Besides, the LR50 in the data set with Aphidius rhopalosiphi was found to be 3.2 g/ha; in the data set on Typhlodromus pyri it was 2.9 g/ha.
